Measured values from patent publication US20130324522A1, “INSECT ODORANT RECEPTOR ANTAGONISTS” (THE ROCKEFELLER UNIVERSITY, priority 2010, published 2013).
Like-named read-outs stand apart in the source and are kept apart here.

Key:
Type in all cases: cell-based
OR8/OR7 = OR8/OR7 (Anopheles gambiae, UniProt Q7PUT5+Q7QCC7); assay: Ca2+-imaging of stable HEK293T cell line OR8/OR7; conditions: for inhibition at 4 µM: HEK-293T, read-out: Percent Inhibition OR8 OR7; for IC50: Table B, read-out: IC50 OR8
Chain of OR8/OR7 (Q7QCC7 whole entry): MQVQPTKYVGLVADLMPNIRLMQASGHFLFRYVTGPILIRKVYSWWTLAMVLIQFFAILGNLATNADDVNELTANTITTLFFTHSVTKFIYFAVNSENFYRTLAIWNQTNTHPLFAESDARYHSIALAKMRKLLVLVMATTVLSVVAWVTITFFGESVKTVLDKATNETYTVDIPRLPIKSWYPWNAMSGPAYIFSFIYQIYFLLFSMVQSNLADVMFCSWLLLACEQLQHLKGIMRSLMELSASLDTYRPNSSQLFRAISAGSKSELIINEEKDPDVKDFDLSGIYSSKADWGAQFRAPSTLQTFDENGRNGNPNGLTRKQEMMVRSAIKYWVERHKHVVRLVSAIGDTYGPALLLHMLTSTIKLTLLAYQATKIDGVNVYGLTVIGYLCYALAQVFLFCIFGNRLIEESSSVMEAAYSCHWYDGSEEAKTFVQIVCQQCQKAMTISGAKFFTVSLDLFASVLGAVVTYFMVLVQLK
Chain of OR8/OR7 (Q7PUT5 entry or part of it): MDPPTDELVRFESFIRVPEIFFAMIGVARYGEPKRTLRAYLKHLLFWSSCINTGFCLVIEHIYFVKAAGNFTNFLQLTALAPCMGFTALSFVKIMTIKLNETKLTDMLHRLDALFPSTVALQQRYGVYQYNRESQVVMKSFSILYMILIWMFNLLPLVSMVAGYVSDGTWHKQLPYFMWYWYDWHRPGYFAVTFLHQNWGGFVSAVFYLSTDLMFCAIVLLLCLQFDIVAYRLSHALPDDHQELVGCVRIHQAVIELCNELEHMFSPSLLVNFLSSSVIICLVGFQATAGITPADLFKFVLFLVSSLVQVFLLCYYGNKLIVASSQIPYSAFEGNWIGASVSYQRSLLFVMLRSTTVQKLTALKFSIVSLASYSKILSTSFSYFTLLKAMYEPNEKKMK
Procedure, shortened: (§1)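 Odorant solutions were prepared in HBSS at 9× final, with test compounds transferred in from […] DMSO stocks. These mixtures were applied to dye-loaded HEK293T stable receptor lines, and calcium responses were recorded in real time.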

OR10/OR7 = OR10/OR7 (Anopheles gambiae, UniProt B5U0U7+Q7QCC7); assay: Ca2+-imaging of stable HEK293T cell line OR10/OR7; conditions: for inhibition at 4 µM: HEK-293T, read-out: Percent Inhibition OR10 OR7
Chain of OR10/OR7 (Q7QCC7 whole entry): as the sequence (Q7QCC7 whole entry) above
Chain of OR10/OR7 (B5U0U7 entry or part of it): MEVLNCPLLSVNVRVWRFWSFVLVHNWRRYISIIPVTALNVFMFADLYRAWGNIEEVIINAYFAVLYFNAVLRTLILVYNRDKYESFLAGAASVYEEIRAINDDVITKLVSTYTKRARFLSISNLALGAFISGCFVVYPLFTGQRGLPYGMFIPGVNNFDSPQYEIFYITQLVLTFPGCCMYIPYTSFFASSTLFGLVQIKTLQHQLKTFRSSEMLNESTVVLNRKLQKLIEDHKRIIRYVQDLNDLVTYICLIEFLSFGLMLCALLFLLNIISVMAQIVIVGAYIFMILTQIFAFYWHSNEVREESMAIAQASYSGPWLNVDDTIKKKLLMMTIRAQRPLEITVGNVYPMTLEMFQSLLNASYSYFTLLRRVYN
Procedure, shortened: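 Stable HEK293T line co-expressing OR10/OR7, plated 2 days on poly-D-lysine, loaded with Ca-4 dye 1.5 hr at room temperature. Compounds premixed into odorant in HBSS and applied on FDSS6000. Ca2+ rise followed by fluorescence at 525 nm (excitation 485 nm).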

mOREG = target: T1, mOREG (Mus musculus, UniProt Q920P2); assay: Ca2+-imaging, control receptor mOREG; conditions: for inhibition at 4 µM: read-out: Percent Inhibition mOREG
T1 sequence (Q920P2 1-313): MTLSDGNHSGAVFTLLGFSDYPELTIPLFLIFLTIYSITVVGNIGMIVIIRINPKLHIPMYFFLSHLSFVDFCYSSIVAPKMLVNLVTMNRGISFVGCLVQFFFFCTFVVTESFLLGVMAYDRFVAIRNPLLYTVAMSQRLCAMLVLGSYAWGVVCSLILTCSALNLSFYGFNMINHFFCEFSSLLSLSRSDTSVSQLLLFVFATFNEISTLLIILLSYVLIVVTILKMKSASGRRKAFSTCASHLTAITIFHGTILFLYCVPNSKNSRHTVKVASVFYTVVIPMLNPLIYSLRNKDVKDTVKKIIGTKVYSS
Procedure, shortened: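 Stable cell lines plated 2 days on poly-D-lysine, loaded with Ca-4 dye 1.5 hr at room temperature, then challenged with odorant in HBSS containing pre-added compounds. Intracellular Ca2+ rise followed by real-time fluorescence, 485 nm excitation/525 nm emission; HBSS and ligand wells serve as negative and positive controls.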

OR28/OR7 = OR28/OR7 (Anopheles gambiae, UniProt A0A1S4GFY3+Q7QCC7); assay: Ca2+-imaging of stable HEK293T cell line OR28/OR7; conditions: for inhibition at 4 µM: HEK-293T, read-out: Percent Inhibition OR28 OR7
Chain of OR28/OR7 (A0A1S4GFY3 entry or part of it): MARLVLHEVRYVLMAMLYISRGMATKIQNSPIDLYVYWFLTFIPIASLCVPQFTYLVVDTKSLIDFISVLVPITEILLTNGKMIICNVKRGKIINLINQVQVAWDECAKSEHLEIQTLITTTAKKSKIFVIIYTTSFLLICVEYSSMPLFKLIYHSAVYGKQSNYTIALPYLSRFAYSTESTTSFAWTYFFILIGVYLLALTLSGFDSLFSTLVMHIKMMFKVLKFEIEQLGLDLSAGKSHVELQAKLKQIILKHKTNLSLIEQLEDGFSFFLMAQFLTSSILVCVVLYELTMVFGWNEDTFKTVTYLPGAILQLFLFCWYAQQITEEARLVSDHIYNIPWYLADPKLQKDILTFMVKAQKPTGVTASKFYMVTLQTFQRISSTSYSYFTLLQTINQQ
Chain of OR28/OR7 (Q7QCC7 whole entry): as the sequence (Q7QCC7 whole entry) above
Procedure, shortened: as §1

TRP channel (TRPM8) = target: T2, TRP channel (TRPM8) (Mus musculus, UniProt Q8R4D5); assay: Ca2+-imaging of stable HEK293T cell line TRPM8; conditions: HEK-293T, read-out: Percent Inhibition TRPM8
T2 construct: Full-length cDNAs for mosquito (Anopheles gambiae) odorant receptor (OR1, OR2, OR7, OR8, OR28), and fly (Drosophila melanogaster) odorant receptor (Or47a, Or83b), mouse TRP channel (TRPM8); expressed in transfected cells
T2 sequence (Q8R4D5 whole entry): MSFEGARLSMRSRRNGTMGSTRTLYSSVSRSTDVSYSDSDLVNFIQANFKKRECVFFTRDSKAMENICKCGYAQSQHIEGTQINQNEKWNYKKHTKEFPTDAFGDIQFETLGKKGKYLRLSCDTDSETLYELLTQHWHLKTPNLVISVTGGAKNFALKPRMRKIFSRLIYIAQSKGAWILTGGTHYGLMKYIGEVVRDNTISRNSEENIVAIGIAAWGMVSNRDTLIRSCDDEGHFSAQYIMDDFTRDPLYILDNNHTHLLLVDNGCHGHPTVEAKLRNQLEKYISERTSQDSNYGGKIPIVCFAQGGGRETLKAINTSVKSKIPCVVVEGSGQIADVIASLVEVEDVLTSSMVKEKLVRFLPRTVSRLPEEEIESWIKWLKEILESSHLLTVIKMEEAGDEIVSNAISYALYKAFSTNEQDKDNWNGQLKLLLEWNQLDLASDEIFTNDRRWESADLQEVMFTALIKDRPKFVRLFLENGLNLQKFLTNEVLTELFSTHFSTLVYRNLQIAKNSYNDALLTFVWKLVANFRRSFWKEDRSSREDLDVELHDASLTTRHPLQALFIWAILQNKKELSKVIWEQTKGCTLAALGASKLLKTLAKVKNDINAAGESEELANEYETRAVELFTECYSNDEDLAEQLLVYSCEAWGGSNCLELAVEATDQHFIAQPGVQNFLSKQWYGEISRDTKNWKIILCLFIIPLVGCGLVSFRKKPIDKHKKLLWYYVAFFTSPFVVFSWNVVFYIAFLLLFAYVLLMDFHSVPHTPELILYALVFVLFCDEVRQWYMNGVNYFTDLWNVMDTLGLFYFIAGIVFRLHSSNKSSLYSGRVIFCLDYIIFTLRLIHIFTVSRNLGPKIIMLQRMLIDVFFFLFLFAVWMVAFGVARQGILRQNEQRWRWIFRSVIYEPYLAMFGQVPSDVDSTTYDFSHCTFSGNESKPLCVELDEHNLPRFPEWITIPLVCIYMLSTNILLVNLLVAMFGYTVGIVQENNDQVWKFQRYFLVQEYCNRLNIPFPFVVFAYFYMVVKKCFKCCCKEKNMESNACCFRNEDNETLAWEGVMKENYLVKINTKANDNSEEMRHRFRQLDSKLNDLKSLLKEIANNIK
Procedure, shortened: as §1

Row | Compound | inhibition at 4 µM (OR8/OR7; compound applied at 4 μM) | inhibition at 4 µM (OR10/OR7; compound applied at 4 μM) | inhibition at 4 µM (mOREG; compound applied at 4 μM) | inhibition at 4 µM (OR28/OR7; compound applied at 4 μM) | IC50 (OR28/OR7; Table B, read-out: IC50 OR28) | inhibition at 4 µM (TRP channel (TRPM8); compound applied at 4 μM) | IC50 (OR10/OR7; Table B, read-out: IC50 OR10) | IC50 (mOREG; Table B) | IC50 (OR8/OR7) | inhibition at 4 µM (OR8/OR7) | IC50 (OR10/OR7) | inhibition at 4 µM (OR10/OR7) | inhibition at 4 µM (mOREG) | IC50 (OR28/OR7) | inhibition at 4 µM (OR28/OR7) | inhibition at 4 µM (TRP channel (TRPM8))
1 | O=C(NCCC(=O)N1CCOC(COCc2ccc(F)cc2Cl)C1)OCc1ccccc1 (stereo not shown) [RU-0050344] | 26 to 50% | 26 to 50% | 26 to 50% | > 75% | < 100 nM | < 25% |  |  |  |  |  |  |  |  |  | 
2 | COc1cccc(-c2nnc(SCCCC(=O)N3CCN(C(=O)CC(C)(C)C)C(C)C3)n2-c2ccc(C)cc2)c1 (stereo not shown) [RU-0071818] | < 25% | 51 to 74% | 51 to 74% | > 75% | < 100 nM | < 25% | > 1000 nM | > 1000 nM |  |  |  |  |  |  |  | 
3 | Cc1ccccc1C(=O)N[C@@H]1CCCCC1NC(=O)C1CCCN(S(=O)(=O)c2cc(Cl)ccc2Cl)C1 (stereo partly shown) [RU-0045691] | < 25% | 26 to 50% | 26 to 50% | > 75% | < 100 nM | < 25% |  |  |  |  |  |  |  |  |  | 
4 | O=C(c1cccc(F)c1)N(Cc1c(-c2ccccc2)noc1N1CCCC1)CC1CCCO1 (stereo not shown) [RU-0037434] | 51 to 74% | 26 to 50% | 26 to 50% | > 75% | < 100 nM | < 25% |  |  | > 1000 nM |  |  |  |  |  |  | 
5 | CCN(CC)c1onc(-c2ccccc2)c1CN(CC1CCCO1)C(=O)c1ccco1 (stereo not shown) [RU-0036855] | 26 to 50% | < 25% | 26 to 50% | > 75% | < 100 nM | 26 to 50% |  |  |  |  |  |  |  |  |  | 
6 | COc1ccccc1C(=O)C1CCCN(C(=O)c2cccc(N3CCOCC3)c2)C1 (stereo not shown) [RU-0029350] | 26 to 50% | 51 to 74% | 26 to 50% | > 75% | 100 to 1000 nM | 26 to 50% | > 1000 nM |  | > 1000 nM |  |  |  |  |  |  | 
7 | COCCN(Cc1nccn1Cc1c(F)cccc1Cl)C(=O)CCc1ccccc1 [RU-0058550] | < 25% | 26 to 50% | 26 to 50% | > 75% | < 100 nM | < 25% |  |  |  |  |  |  |  |  |  | 
8 | C=CCOc1cccc(C(=O)N2CCCC(C(=O)c3ccccc3OC)C2)c1 (stereo not shown) [RU-0029409] | 26 to 50% | 26 to 50% | < 25% | > 75% | < 100 nM | 26 to 50% |  |  |  |  |  |  |  |  |  | 
9 | CCc1c(C(=O)NCc2cccnc2)cnn1-c1ccccc1 [RU-0048504] | < 25% | 51 to 74% | < 25% | > 75% | < 100 nM | < 25% | < 100 nM |  |  |  |  |  |  |  |  | 
10 | COCCCN(Cc1c(-c2ccccc2)noc1N1CCC(C)CC1)C(=O)c1ccccc1F [RU-0036876] | 51 to 74% | < 25% | 26 to 50% | > 75% | < 100 nM | < 25% |  |  | > 1000 nM |  |  |  |  |  |  | 
11 | CCN(CC)c1onc(-c2ccc(F)cc2)c1CN(CCCOC)C(=O)c1ccc2c(c1)OCO2 [RU-0036983] | 51 to 74% | 26 to 50% | 26 to 50% | > 75% | < 100 nM | 26 to 50% |  |  | > 1000 nM |  |  |  |  |  |  | 
12 | CN(C)c1ccc(C(=O)N2CCOC(COCc3ccccc3F)C2)cc1 (stereo not shown) [RU-0050325] | 26 to 50% | < 25% | < 25% | > 75% | < 100 nM | < 25% |  |  |  |  |  |  |  |  |  | 
13 | C=CCNC(=O)C(NC(=O)c1cccc(C)c1)C1CCN(C(=O)c2cccc(Br)c2)CC1 (stereo not shown) [RU-0039123] | 26 to 50% | 26 to 50% | 26 to 50% | > 75% | < 100 nM | < 25% |  |  |  |  |  |  |  |  |  | 
14 | CCNc1nc(NC(C)C)nc(N(C#N)Cc2ccccc2)n1 [RU-0015806] | < 25% | 26 to 50% | < 25% | > 75% | < 100 nM | 26 to 50% | > 1000 nM |  |  |  |  |  |  |  |  | 
15 | CC(C)CN(Cc1nccn1Cc1c(F)cccc1Cl)C(=O)c1ccc(F)cc1 [RU-0048054] | < 25% | 51 to 74% | < 25% | < 25% | < 100 nM | < 25% | < 100 nM |  |  |  |  |  |  |  |  | 
16 | C=CCN(Cc1nccn1Cc1ccccc1F)C(=O)c1cccc(F)c1 [RU-0058232] | 26 to 50% | > 75% | 26 to 50% | > 75% | < 100 nM | 26 to 50% | < 100 nM |  |  |  |  |  |  |  |  | 
17 | CCOC(=O)CCC(=O)N(CCc1ccccc1)CC(=O)Nc1cc(C(C)(C)C)nn1-c1ccccc1C [RU-0072462] | < 25% | 26 to 50% | < 25% | > 75% | < 100 nM | < 25% |  |  |  |  |  |  |  |  |  | 
18 | CCOC(=O)C1CCCN(C(=O)c2csc(CSc3nnc(-c4cccc(OC)c4)n3-c3ccc(C)cc3)n2)C1 (stereo not shown) [RU-0071628] | 26 to 50% | < 25% | 26 to 50% | > 75% | < 100 nM | < 25% |  |  |  |  |  |  |  |  |  | 
19 | CCCCCCCC(=O)N1CCCC(C(=O)NC2CCCC[C@H]2NC(=O)c2ccccc2C)C1 (stereo partly shown) [RU-0045756] | < 25% | < 25% | 26 to 50% | 51 to 74% | > 1000 nM | < 25% |  |  |  |  |  |  |  |  |  | 
20 | CCN(CC)C(=O)Oc1ccc2c(ccn2Cc2ccc(Cl)cc2)c1NC(=O)C1CC1 [RU-0075475] |  |  |  |  |  |  |  |  |  | < 25% | < 100 nM | > 75% | < 25% | > 1000 nM | > 75% | < 25%
21 | Cc1cccc(Cn2ccnc2CN(C(=O)c2ccccc2F)C2CCCCC2)c1 [RU-0047851] | < 25% | > 75% | 26 to 50% | 26 to 50% | < 100 nM | < 25% | < 100 nM |  |  |  |  |  |  |  |  | 
